Experimental data taken from US7081247B2, “Composition and method for inhibiting polar capsule discharge and protecting a subject from nematocyst sting” (priority 2002, dated 2006).

Key:
[1] = system: isolated nematocyst capsules; conditions: 50 mM CaCl2; cited from earlier work
[2] = system: Aiptasia Mutabilis acontial filament nematocysts; conditions: 2 mM in seawater medium; cited from earlier work
[3] = system: nematocyte batteries in the oral arms of Pelagia nociluca; conditions: applied through a gelatin probe; cited from earlier work
[4] = system: jellyfish Rhopilema nomadica nematocysts; experiment: Inhibition of nematocyst discharge into human skin samples (immunohistochemical analysis); type: cell-based; conditions: human skin sections, 10 seconds contact with jellyfish tentacles
Procedure: Normal human skin was obtained from neonatal elective circumcision. The skin was immediately placed into sterile phosphate buffered saline (PBS) containing antibiotic/antimycotic. The tissue was frozen and embedded in Tissue-TekTM. It was then sectioned into 50 μm sections using a cryostat. The sections were attached to superfrost/plus microscope slide (Fisherbrand) and maintained at […] until time of use. All sections were examined to ensure that they were perpendicular to the plane of the epidermis, exposing cross-sections of epidiermis, dermis and sub-cutaneos tissue.
For immunoassay tests to detect cnidaria stinging level of human skin, a polyclonal antibody specific for nematocyst toxin was prepared, as described in Lotan et al (1996).
Briefly, the HPLC fraction containing the toxin phospholipase A2 from the jellyfish Rhopilema nomadica was isolated and injected into rabbits as described in Vaitukaitis, pp. 46–52, “Immunochemical Techniques, Part B,” in Methods in enzymology, vol. 73, ed. Larson & Vunkis (academic Press, New York, 1981). Serum was collected from the rabbits after two injections, and the presence of antibody against the jellyfish toxin was examined on immunoblots.
The slides prepared and frozen as described above were thawed at room temperature. The slides were submersed in sea water and then attached to jellyfish or sea anemone tentacles for 10 seconds. The tentacles were detached, the slide washed with PBS, and blocked using 5% Fetal Bovine Serum, and 0.1% Triton X100 in PBS (blocking solution). All washing incubation steps were conducted on a tilting shaker at room temperature. The slides were incubated at 10 ml of block solution containing a 1:2, 500 dilution of the anti-toxin antibody for one hour. After incubation, the slide were washed five times for five minutes each wash with 100 mL of 0.1% TritonX100 in PBS (Wash solution). […]
Twelve sections of human skin samples were tested in each experiment. […] The number of nematocysts that penetrated the skin was determined using immunohistochemical analysis.

[5] = Water resistance of ointment on virgin wool squares in seawater (atomic absorption); type: physicochemical; conditions: 80 RPM
Procedure: To determine the water resistance of an ointment containing 50 mM LaCl3, prepared according the above-described conditions, three squares (10×10 CM) of virgin wool, keratin protein that is used as a substrate to approximate human skin, were used. Each square of wool was treated with 1-gram of ointment containing 50 mM LaCl3. After 20 minutes of drying at room temperature, the squares of wool were immersed in one liter of seawater and agitated (80 RPM) for 30 minutes, 60 minutes, or 120 minutes. The ointment was extracted separately from each square of wool with 50 ml 1% Tritox100 under boiling. The Lanthanum chloride concentration of each sample of extracted ointment was monitored with the use of atomic absorption.

[Ca+2].[Cl-].[Cl-] [CaCl2]
discharge of isolated nematocyst capsules [1]: do not discharge

[Cl-].[Cl-].[Co+2] [CoCl2, reference compound]
effect on nematocyst discharge [2]: inactivates nematocyst discharge

[Gd+3] [Gd^+3]
effect on discharge of nematocyte batteries [3]: prevents discharge

[Cl][La]([Cl])[Cl] [LaCl3, Lanthanum Chloride]
inhibition of nematocyst penetration ([4]; 2 mM LaCl3 in ointment): 44% | reduction in the sting ([4]; 5 mM LaCl3 in ointment): 76% | reduction of the sting ([4]; 50 mM LaCl3 in lotion): 92% | LaCl3 retained in the ointment ([5]; ointment containing 50 mM LaCl3, 30 minutes water submersion): 90% | Lanthanum remaining in the ointment ([5]; ointment containing 50 mM LaCl3, 60 minutes water submersion): 77% | LaCl3 left in the ointment ([5]; ointment containing 50 mM LaCl3, 120 minutes water submersion): 70% | effect on nematocyst discharge [2]: inactivates nematocyst discharge
